{"source": "patent US9332764B2", "about": "“Aqueous composition for inactivating sporulated and/or non-sporulated coccidian parasites” (Ecolab USA Inc., priority 2007, dated 2016)", "key": {"[1]": {"test_system": "Eimeria oocysts", "conditions": "cited from earlier work"}, "[2]": {"test_system": "sporulated and/or non-sporulated Coccidian parasites", "conditions": "preferably around 800 ppm; cited from earlier work"}, "[3]": {"test_system": "sporulated and/or non-sporulated Coccidian parasites", "experiment": "Inactivation of Coccidian parasites by chlorine dioxide solutions, general statements", "conditions": "chlorine dioxide alone, concentrations below 120 ppm", "description": "Therefore the disadvantage of the method described in JP 2004-210726 is that high concentrations of chlorine dioxide have to be used in order to sufficiently inactivate the Coccidian parasites. The inventors of the present invention have performed experiments to lower the limit of the concentration of chlorine dioxide in a solution which is still effective, inactivating Coccidian parasites.\nIn addition the inventors have also investigated whether combinations of chlorine dioxide with other surfactants like for example alkyl sulfonates, amine oxides, ethoxylated polyalcohols, quaternary ammonium compounds, lauryl hydroxy sulfane, and alkyl ether sulfates have an effect in combination with lower concentrations of chlorine dioxide."}, "[4]": {"test_system": "sporulated oocysts of Eimeria papillata", "experiment": "Infection of mice with treated sporulated oocysts, excretion of oocysts in excrements", "format": "in vivo, Eimeria papillata in Balb/C-mice", "set-up": "key to excretion 4 dpi / excretion 5 dpi / excretion 6 dpi / excretion 7 dpi: +++: massive excretion of oocysts; ++: excretion of many oocysts; +: excretion of few oocysts; −: no oocysts detectable", "conditions": "for excretion 4 dpi / excretion 5 dpi / excretion 6 dpi / excretion 7 dpi: 60 min; for excretion 4 dpi: 4 days after infection; for excretion 5 dpi: 5 days after infection; for excretion 6 dpi: 6 days after infection; for excretion 7 dpi: 7 days after infection", "procedure": "(§1) For the experiments 20 g female Balb/C-mice were used. […] The flotation medium was prepared containing 124.5 g NaCl and 435.8 g saccharide which was diluted with water and filled up to 1 litre. Fresh non-sporulated oocysts were prepared. Subsequently the Balb/C-mice were infected with 20,000 sporulated oocysts. From the fourth day after infection, fresh mouse excrement is collected and isolated by flotation. Residual flotation medium is removed by washing three times with clean water.\nSporulated infectious oocysts were incubated at 25° C. for one week.\n(§2) A chlorine dioxide solution is prepared by mixing a solution containing sodium chlorite and an acidic solution. By reaction chlorine dioxide is produced. The solution comprises 120 ppm chorine dioxide. By further dilution, chlorine dioxide solutions of 40, 20, 10, 4, 1, and 0.5 ppm are produced which are immediately used for the experiments.\nA further series of experiments was performed in order to evaluate the inactivation pattern of sporulated oocysts. […] After that the oocyst suspensions were washed with water for three times and 20,000 oocysts were orally administered to a mouse. Per concentration one mouse was used. In addition two mice were treated, each with 20,000 non-treated, sporulated oocysts for control purposes. From the fourth day after infection samples of the excrements of the mice were taken daily and the presence of oocysts of Eimeria papillata was examined. (see table 3) […]"}, "[5]": {"test_system": "non-sporulated oocysts of Eimeria papillata", "experiment": "Incubation of fresh non-sporulated oocysts, then check for sporulation after one week at 25° C.", "format": "cell-based", "conditions": "incubation 60 min; for result (sporulation): room temperature, no surfactant", "procedure": "as §1, §2\nOocysts of Eimeria papillata were filtered from fresh mice excrements and incubated for 60 min with freshly produced chlorine dioxide solution at concentrations of 40, 20, 10, 4, 1, 0.5 ppm at room temperature. After 60 min incubation time the oocyst suspensions were washed with water and cultured for sporulation in 1 ml water. The probes were incubated for one week at 25° C. As control a non-treated, non-sporulated oocyst sample was used which was also incubated for one week at 25° C. After seven days it was checked if a sporulation occurred. (see table 1)\nIn the same way experiments were carried out with the aqueous composition according to the invention comprising chlorine dioxide and as an anionic surfactant Dofax 2A1 (Dow Chemicals) which is a mixture of a disodium oxybis(dodecyl benzenesulfonate) and a dodecyl(sulfophenoxy)disodium salt of benzene sulfonic acid. The composition comprises between 0.5 to 25 ppm chlorine dioxide and 0.2 wt. % of the anionic surfactant. (see table 2)"}, "[6]": {"conditions": "oocysts treated with ClO2 4 ppm"}, "[7]": {"conditions": "oocysts treated with ClO2 10 ppm"}, "[8]": {"conditions": "oocysts treated with ClO2 20 ppm"}, "[9]": {"conditions": "oocysts treated with ClO2 40 ppm"}, "[10]": {"conditions": "oocysts treated with ClO2 120 ppm"}, "[11]": {"conditions": "oocysts treated with ClO2 240 ppm"}}, "note": "“Also recorded” adds a separate entry of the source."}
{"compound": "CC(=O)OO", "note": "[peracetic acid]", "values": [{"measurement": "effectiveness for eradication of coccoid oocysts", "setting": "[1]", "result": "ineffective"}]}
{"compound": "O=CCCCC=O", "note": "[glutaraldehyde]", "values": [{"measurement": "effectiveness for eradication of coccoid oocysts", "setting": "[1]", "result": "ineffective"}]}
{"compound": "[I-].[K+]", "note": "[potassium iodide]", "values": [{"measurement": "effectiveness for eradication of coccoid oocysts", "setting": "[1]", "result": "ineffective"}]}
{"compound": "cresylic acid", "values": [{"measurement": "effectiveness for eradication of coccoid oocysts", "setting": "[1]", "result": "ineffective"}]}
{"compound": "OCl", "note": "[sodium hypochlorite]", "values": [{"measurement": "effectiveness for eradication of coccoid oocysts", "setting": "[1]", "result": "ineffective"}]}
{"compound": "benzalkonium chloride", "values": [{"measurement": "effectiveness for eradication of coccoid oocysts", "setting": "[1]", "result": "ineffective"}]}
{"compound": "C=O", "note": "[formalin]", "values": [{"measurement": "effectiveness for eradication of coccoid oocysts", "setting": "[1]", "result": "ineffective"}]}
{"compound": "O=S(=O)([O-])[O-].[Cu+2]", "note": "[copper sulfate]", "values": [{"measurement": "effectiveness for eradication of coccoid oocysts", "setting": "[1]", "result": "ineffective"}]}
{"compound": "[O][Cl+][O-]", "note": "[chlorine dioxide solution, chlorine dioxide]", "values": [{"measurement": "chlorine dioxide concentration known to completely inactivate sporulated and/or non-sporulated Coccidian parasites", "setting": "[2]", "result": "above 200 ppm"}, {"measurement": "inactivation / eradication of coccoid organisms", "setting": "[3]", "result": "ineffective; also recorded: will not inactivate"}, {"measurement": "excretion of oocysts of Eimeria papillata in Balb/C-mice", "setting": "[4]; chlorine dioxide between 4 and 40 ppm, incubation 60 min", "result": "cannot be avoided"}, {"measurement": "detectable oocysts", "setting": "[4]; concentrations of 120 ppm and 240 ppm", "result": "no detectable oocysts"}, {"measurement": "excretion 4 dpi", "setting": "[4]; [6]", "result": "++"}, {"measurement": "excretion 5 dpi", "setting": "[4]; [6]", "result": "++"}, {"measurement": "excretion 6 dpi", "setting": "[4]; [6]", "result": "++"}, {"measurement": "excretion 7 dpi", "setting": "[4]; [6]", "result": "+"}, {"measurement": "excretion 4 dpi", "setting": "[4]; [7]", "result": "++"}, {"measurement": "excretion 5 dpi", "setting": "[4]; [7]", "result": "++"}, {"measurement": "excretion 6 dpi", "setting": "[4]; [7]", "result": "++"}, {"measurement": "excretion 7 dpi", "setting": "[4]; [7]", "result": "+"}, {"measurement": "excretion 4 dpi", "setting": "[4]; [8]", "result": "++"}, {"measurement": "excretion 5 dpi", "setting": "[4]; [8]", "result": "++"}, {"measurement": "excretion 6 dpi", "setting": "[4]; [8]", "result": "+"}, {"measurement": "excretion 7 dpi", "setting": "[4]; [8]", "result": "+"}, {"measurement": "excretion 4 dpi", "setting": "[4]; [9]", "result": "+"}, {"measurement": "excretion 5 dpi", "setting": "[4]; [9]", "result": "+"}, {"measurement": "excretion 6 dpi", "setting": "[4]; [9]", "result": "+"}, {"measurement": "excretion 7 dpi", "setting": "[4]; [9]", "result": "+"}, {"measurement": "excretion 4 dpi", "setting": "[4]; [10]", "result": "−"}, {"measurement": "excretion 5 dpi", "setting": "[4]; [10]", "result": "−"}, {"measurement": "excretion 6 dpi", "setting": "[4]; [10]", "result": "−"}, {"measurement": "excretion 7 dpi", "setting": "[4]; [10]", "result": "−"}, {"measurement": "excretion 4 dpi", "setting": "[4]; [11]", "result": "−"}, {"measurement": "excretion 5 dpi", "setting": "[4]; [11]", "result": "−"}, {"measurement": "excretion 6 dpi", "setting": "[4]; [11]", "result": "−"}, {"measurement": "excretion 7 dpi", "setting": "[4]; [11]", "result": "−"}, {"measurement": "result (sporulation)", "setting": "[5]; ClO2 0.5 ppm", "result": "complete"}, {"measurement": "result (sporulation)", "setting": "[5]; ClO2 1 ppm", "result": "complete"}, {"measurement": "result (sporulation)", "setting": "[5]; ClO2 4 ppm", "result": "complete"}, {"measurement": "result (sporulation)", "setting": "[5]; ClO2 10 ppm", "result": "complete"}, {"measurement": "result (sporulation)", "setting": "[5]; ClO2 20 ppm", "result": "complete"}, {"measurement": "result (sporulation)", "setting": "[5]; ClO2 40 ppm", "result": "partial"}, {"measurement": "sporulation", "setting": "[5]; chlorine dioxide only, concentrations below 40 ppm", "result": "complete or partial sporulation"}]}
{"compound": "O=S(=O)(O)O", "note": "[sulfuric acid]", "values": [{"measurement": "effectiveness for eradication of coccoid oocysts", "setting": "[1]", "result": "ineffective"}]}
{"compound": "[K+].[K+].[O]=[Cr](=[O])([O-])[O][Cr](=[O])(=[O])[O-]", "note": "[potassium dichromate]", "values": [{"measurement": "effectiveness for eradication of coccoid oocysts", "setting": "[1]", "result": "ineffective"}]}
{"compound": "[K+].[OH-]", "note": "[potassium hydroxide]", "values": [{"measurement": "effectiveness for eradication of coccoid oocysts", "setting": "[1]", "result": "ineffective"}]}
